Data reported in the supplement of paper PMC8149375.

What was measured:
Details in all cases: treatment: drug + dasatinib (fixed dose, not stated); 5 days
SN12C [1] = test: GI50 of drug in presence of dasatinib; higher = less potent
Protocol: (§1)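 Primary HTS combination arm: 8 RCC cell lines treated with 8 doses (up to 10 uM) of each library drug plus a fixed dose of dasatinib (dose not stated) for 5 days; viability read by CellTiter-Glo and normalised to DMSO. GI50 was fitted with XLfit, AUC is the area under the dose-response curve, and minimum viability is the lowest fraction of DMSO viability across doses.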

TK-10 [2] = test: as above
Protocol: as §1

UO-31 [3] = test: as above
Protocol: as §1

769-P [4] = test: as above
Protocol: as §1

ACHN [5] = test: as above
Protocol: as §1

CAKI-1 [6] = test: as above
Protocol: as §1

786-O [7] = test: as above
Protocol: as §1

A498 [8] = test: as above
Protocol: as §1

SN12C [9] = test: AUC of dose-response viability curve, drug + dasatinib, normalised to DMSO (arbitrary (AUC of normalised viability)); higher = less growth inhibition
Protocol: as §1

TK-10 [10] = test: as above
Protocol: as §1

UO-31 [11] = test: as above
Protocol: as §1

769-P [12] = test: as above
Protocol: as §1

ACHN [13] = test: as above
Protocol: as §1

CAKI-1 [14] = test: as above
Protocol: as §1

786-O [15] = test: as above
Protocol: as §1

A498 [16] = test: as above
Protocol: as §1

SN12C [17] = test: minimum viability across doses, drug + dasatinib, relative to DMSO (fraction); higher = less growth inhibition
Protocol: as §1

TK-10 [18] = test: as above
Protocol: as §1

UO-31 [19] = test: as above
Protocol: as §1

769-P [20] = test: as above
Protocol: as §1

ACHN [21] = test: as above
Protocol: as §1

CAKI-1 [22] = test: as above
Protocol: as §1

786-O [23] = test: as above
Protocol: as §1

A498 [24] = test: as above
Protocol: as §1

Structure (SMILES) | GI50 of drug (SN12C [1]) [nM] | GI50 of drug (TK-10 [2]) [nM] | GI50 of drug (UO-31 [3]) [nM] | GI50 of drug (769-P [4]) [nM] | GI50 of drug (ACHN [5]) [nM] | GI50 of drug (CAKI-1 [6]) [nM] | GI50 of drug (786-O [7]) [nM] | GI50 of drug (A498 [8]) [nM] | AUC of dose-response viability curve (SN12C [9]) | AUC of dose-response viability curve (TK-10 [10]) | AUC of dose-response viability curve (UO-31 [11]) | AUC of dose-response viability curve (769-P [12]) | AUC of dose-response viability curve (ACHN [13]) | AUC of dose-response viability curve (CAKI-1 [14]) | AUC of dose-response viability curve (786-O [15]) | AUC of dose-response viability curve (A498 [16]) | minimum viability across doses (SN12C [17]) | minimum viability across doses (TK-10 [18]) | minimum viability across doses (UO-31 [19]) | minimum viability across doses (769-P [20]) | minimum viability across doses (ACHN [21]) | minimum viability across doses (CAKI-1 [22]) | minimum viability across doses (786-O [23]) | minimum viability across doses (A498 [24])
CN(C)C/C=C/C(=O)Nc1cc2c(Nc3ccc(F)c(Cl)c3)ncnc2cc1O[C@H]1CCOC1 [Afatinib (BIBW2992)] + Cc1nc(Nc2ncc(C(=O)Nc3c(C)cccc3Cl)s2)cc(N2CCN(CCO)CC2)n1 [dasatinib] | 2300 | 72.5 | 885 | 29.1 | 4.16 | 241 | 953 | 1490 | 2.02 | 1.58 | 1.88 | 1.31 | 1.02 | 1.57 | 1.92 | 2.54 | 0.0274 | 0.0817 | 0.00619 | 0.0233 | 0.00184 | 0.0121 | 0.00818 | 0.00955
C=CC(=O)Nc1cccc(Sc2nc(Nc3ccc(N4CCN(C)CC4)cc3)ncc2Cl)c1 [WZ8040] + Cc1nc(Nc2ncc(C(=O)Nc3c(C)cccc3Cl)s2)cc(N2CCN(CCO)CC2)n1 [dasatinib] | 3880 | 652 | 2340 | 1160 | 127 | 1650 | 1480 | 8300 | 2.18 | 1.96 | 2.72 | 2.02 | 1.5 | 1.96 | 2.05 | 3.23 | 0.00446 | 0.0196 | 0.0164 | 0.0198 | 0.00268 | 0.00162 | 0.00713 | 0.113
Cn1cc(-c2ccc3nnc(C(F)(F)c4ccc5ncccc5c4)n3n2)cn1 + Cc1nc(Nc2ncc(C(=O)Nc3c(C)cccc3Cl)s2)cc(N2CCN(CCO)CC2)n1 [dasatinib] | > 10000 | > 10000 | > 10000 | 7400 | > 10000 | > 10000 | > 10000 | > 10000 | 2.34 | 2.6 | 3.52 | 2.32 | 1.87 | 2.24 | 2.54 | 3.2 | 0.614 | 0.646 | 0.923 | 0.469 | 0.499 | 0.592 | 0.566 | 0.854
COc1ccc(C2=NC(c3ccc(Cl)cc3)C(c3ccc(Cl)cc3)N2C(=O)N2CCNC(=O)C2)c(OC(C)C)c1 (stereo unspecified) [Nutlin-3] + Cc1nc(Nc2ncc(C(=O)Nc3c(C)cccc3Cl)s2)cc(N2CCN(CCO)CC2)n1 [dasatinib] | > 10000 | > 10000 | > 10000 | > 10000 | 2000 | 2420 | > 10000 | > 10000 | 2.62 | 2.5 | 4.46 | 2.54 | 1.89 | 2.15 | 2.83 | 3.61 | 0.712 | 0.665 | 0.583 | 0.519 | 0.2 | 0.168 | 0.707 | 0.905
CC(C)(C)c1cnc(CSc2cnc(NC(=O)C3CCNCC3)s2)o1 + Cc1nc(Nc2ncc(C(=O)Nc3c(C)cccc3Cl)s2)cc(N2CCN(CCO)CC2)n1 [dasatinib] | 134 | 476 | 429 | 1190 | 157 | 131 | 55.8 | 129 | 1.34 | 2.02 | 2.06 | 2.04 | 1.26 | 1.59 | 1.26 | 1.6 | 0.0108 | 0.189 | 0.013 | 0.0223 | 0.00387 | 0.034 | 0.00565 | 0.00993
CS(=O)(=O)O.N#CC1(c2ccc(NC(=O)c3cccnc3NCc3ccncc3)cc2)CCCC1 [Apatinib (YN968D1)] + Cc1nc(Nc2ncc(C(=O)Nc3c(C)cccc3Cl)s2)cc(N2CCN(CCO)CC2)n1 [dasatinib] | > 10000 | > 10000 | > 10000 | 9470 | 6530 | > 10000 | > 10000 | > 10000 | 2.45 | 2.5 | 4.78 | 2.43 | 2.18 | 2.39 | 2.64 | 3.76 | 0.656 | 0.636 | 0.988 | 0.49 | 0.389 | 0.572 | 0.624 | 0.874
COC(=O)Nc1ccc(-c2nc(N3CCOCC3)c3cnn(C4CCN(C(=O)OC)CC4)c3n2)cc1 [WYE-354] + Cc1nc(Nc2ncc(C(=O)Nc3c(C)cccc3Cl)s2)cc(N2CCN(CCO)CC2)n1 [dasatinib] | 800 | 329 | 894 | 457 | 74.7 | 345 | 381 | 1980 | 2.08 | 1.83 | 2.63 | 1.84 | 1.33 | 1.71 | 1.76 | 2.63 | 0.215 | 0.208 | 0.019 | 0.122 | 0.0892 | 0.0632 | 0.307 | 0.262
CS(=O)c1ccc(-c2nc(-c3ccc(F)cc3)c(-c3ccncc3)[nH]2)cc1 (stereo unspecified) + Cc1nc(Nc2ncc(C(=O)Nc3c(C)cccc3Cl)s2)cc(N2CCN(CCO)CC2)n1 [dasatinib] | > 10000 | > 10000 | > 10000 | > 10000 | 15.7 | > 10000 | > 10000 | > 10000 | 2.65 | 2.45 | 3.73 | 2.31 | 1.82 | 2.3 | 2.73 | 3.76 | 0.716 | 0.655 | 0.962 | 0.593 | 0.434 | 0.516 | 0.746 | 0.893
FC(F)(F)c1ccc(Nc2nc3cc(Oc4ccnc(-c5ncc(C(F)(F)F)[nH]5)c4)ccc3[nH]2)cc1 [Raf265 derivative] + Cc1nc(Nc2ncc(C(=O)Nc3c(C)cccc3Cl)s2)cc(N2CCN(CCO)CC2)n1 [dasatinib] | > 10000 | 9070 | > 10000 | 5010 | 3300 | 3550 | 5020 | > 10000 | 2.47 | 2.73 | 3.44 | 2.37 | 2.21 | 2.35 | 2.47 | 3.35 | 0.484 | 0.476 | 0.551 | 0.318 | 0.137 | 0.173 | 0.241 | 0.633
O=C1CCC(N2C(=O)c3ccccc3C2=O)C(=O)N1 (stereo unspecified) [Thalidomide] + Cc1nc(Nc2ncc(C(=O)Nc3c(C)cccc3Cl)s2)cc(N2CCN(CCO)CC2)n1 [dasatinib] | > 10000 | > 10000 | > 10000 | > 10000 | > 10000 | > 10000 | > 10000 | > 10000 | 2.52 | 2.48 | 4.13 | 2.54 | 2.17 | 2.35 | 2.49 | 3.94 | 0.679 | 0.665 | 1.03 | 0.666 | 0.555 | 0.638 | 0.556 | 0.971
CNC(=O)c1cc(Oc2ccc(NC(=O)Nc3cc(C(C)(C)C)nn3-c3ccc4ncccc4c3)c(F)c2)ccn1 [DCC-2036 (Rebastinib)] + Cc1nc(Nc2ncc(C(=O)Nc3c(C)cccc3Cl)s2)cc(N2CCN(CCO)CC2)n1 [dasatinib] | 319 | 1330 | 1100 | 1540 | 499 | 125 | 293 | 4420 | 1.87 | 2.29 | 2.84 | 2.21 | 1.71 | 1.54 | 1.88 | 3.51 | 0.0277 | 0.0566 | 0.00958 | 0.185 | 0.0458 | 0.053 | 0.208 | 0.0121
CC(=O)Nc1ccc(NC(=S)NC(=O)c2ccc(C(C)(C)C)cc2)cc1 [Tenovin-1] + Cc1nc(Nc2ncc(C(=O)Nc3c(C)cccc3Cl)s2)cc(N2CCN(CCO)CC2)n1 [dasatinib] | > 10000 | 2840 | 825 | 554 | 1200 | > 10000 | 264 | 854 | 2.47 | 2.2 | 3 | 1.91 | 1.95 | 2.19 | 1.53 | 2.71 | 0.656 | 0.342 | 0.0071 | 0.125 | 0.385 | 0.498 | 0.00416 | 0.0745
CS(=O)(=O)CCNCc1ccc(-c2ccc3ncnc(Nc4ccc(OCc5cccc(F)c5)c(Cl)c4)c3c2)o1.Cc1ccc(S(=O)(=O)O)cc1.Cc1ccc(S(=O)(=O)O)cc1 [Lapatinib Ditosylate (Tykerb)] + Cc1nc(Nc2ncc(C(=O)Nc3c(C)cccc3Cl)s2)cc(N2CCN(CCO)CC2)n1 [dasatinib] | > 10000 | 3340 | 5850 | 401 | 176 | 3850 | 6690 | > 10000 | 2.34 | 2.34 | 3.08 | 1.77 | 1.7 | 2.03 | 2.41 | 3.08 | 0.606 | 0.3 | 0.35 | 0.18 | 0.352 | 0.211 | 0.426 | 0.798
CN(c1ncccc1CNc1nc(Nc2ccc3c(c2)CC(=O)N3)ncc1C(F)(F)F)S(C)(=O)=O.O=S(=O)(O)c1ccccc1 + Cc1nc(Nc2ncc(C(=O)Nc3c(C)cccc3Cl)s2)cc(N2CCN(CCO)CC2)n1 [dasatinib] | 4150 | 3290 | 3010 | 1560 | 96.6 | 966 | 222 | 3510 | 2.16 | 2.28 | 3.91 | 1.93 | 1.66 | 1.98 | 1.6 | 3.75 | 0.012 | 0.15 | 0.0198 | 0.0401 | 0.0114 | 0.039 | 0.00638 | 0.015
